Results on seven molecules are retold here after ChEMBL document CHEMBL1201862, “PubChem BioAssay data set” (2004).

The structures appear in SMILES notation. The source made the active and inactive calls. A value given as a limit tells only on which side of the number the result lay.

In assay [1] the target is Cell division cycle 7-related protein kinase (Homo sapiens, UniProt O00311). It counts as functional.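 Note: value obtained from a kinome-wide kinase panel.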
The target in assay [2] is MAP kinase-activated protein kinase 3 (Homo sapiens, UniProt Q16644). It is filed as functional.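 Note: value comes from a kinome-wide profiling panel in which MAPKAPK3 is one of the panel members.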
Assay [3] addresses Lymphokine-activated killer T-cell-originated protein kinase (Homo sapiens, UniProt Q96KB5). It counts as functional.
Assay [4] has as its target Dual specificity tyrosine-phosphorylation-regulated kinase 4 (Homo sapiens, UniProt Q9NR20). It counts as functional.
Assay [5] addresses Testis-specific serine/threonine-protein kinase 2 (Homo sapiens, UniProt Q96PF2). It is filed as functional.
Assay [6] concerns the target Protein kinase C gamma type (Homo sapiens, UniProt P05129). It is filed as functional.
In assay [7] the target is Eukaryotic elongation factor 2 kinase (Homo sapiens, UniProt O00418). It counts as functional.
Assay [8] has as its target Dual specificity tyrosine-phosphorylation-regulated kinase 3 (Homo sapiens, UniProt O43781). It counts as functional.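 Note: measured as one member of a broad kinase panel.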
Assay [9] addresses Botulinum neurotoxin type F (Clostridium botulinum, UniProt P30996). The assay can be described thus: High-throughput multiplex microsphere dose response for inhibitors of toxin protease, specifically Botulinum neurotoxin light chain F protease, compounds from Cherry Pick 02. It is filed as functional. As to conditions: read-out: EC50_MICROM.
Assay [10] addresses Peroxisome proliferator-activated receptor gamma/Nuclear receptor coactivator 3 (Homo sapiens, UniProt P37231). The assay can be described thus: TR-FRET dose response biochemical High Throughput Screening assay for agonists of the steroid receptor coactivator 3 (SRC-3) recruitment by the peroxisome proliferator-activated receptor gamma (PPAR gamma): non-selective agonists. [Related pubchem assays: 1301 (Confirmation screen.), 1048 (Primary screen.)]. It counts as functional.

In assay [11] the target is Peroxisome proliferator-activated receptor gamma/Nuclear receptor coactivator 2 (Homo sapiens, UniProt P37231). Description: TR-FRET dose response biochemical High Throughput Screening assay for agonists of the steroid receptor coactivator 2 (SRC-2) recruitment by the peroxisome proliferator-activated receptor gamma (PPAR gamma): non-selective agonists. [Related pubchem assays: 1297, 1032 ]. It is filed as functional.

Assay [12] concerns the target Peroxisome proliferator-activated receptor gamma/Nuclear receptor coactivator 1 (Homo sapiens, UniProt P37231). Description: TR-FRET dose response biochemical High Throughput Screening assay for agonists of the steroid receptor coactivator 1 (SRC-1) recruitment by the peroxisome proliferator-activated receptor gamma (PPAR gamma): non-selective agonists. [Related pubchem assays (depositor defined):AID1300, AID1808, AID504735, AID631]. It is filed as protein assay.

The target in assay [13] is Botulinum neurotoxin type A (Clostridium botulinum (strain Hall / ATCC 3502 / NCTC 13319 / Type A), UniProt P0DPI1). Description: High-throughput multiplex microsphere dose response for inhibitors of toxin protease, specifically Botulinum neurotoxin light chain A protease, compounds from Cherry Pick 02. It counts as functional. As to conditions: read-out: EC50_MICROM.

The target in the next assay is Protein S100-A4 (Homo sapiens, UniProt P26447). The assay can be described thus: human S100A4 peptide interaction inhibition curves – biochemical, fluorescence polarization, cherry-picked hits, dose response (AID 687001). It counts as functional.
The target in assay [14] is Sphingosine 1-phosphate receptor 2 (Homo sapiens, UniProt O95136). The assay can be described thus: Late-stage fluorescence-based dose-response cell-based counterscreen assay to identify agonists of the Sphingosine 1-Phosphate Receptor 3 (S1P3): Sphingosine 1-Phosphate Receptor 2 (S1P2) agonist assay. It is filed as functional.
The target in assay [15] is T1, Sphingosine 1-phosphate receptor 4 (Homo sapiens, UniProt O95977).
T1 sequence (O95977 whole entry): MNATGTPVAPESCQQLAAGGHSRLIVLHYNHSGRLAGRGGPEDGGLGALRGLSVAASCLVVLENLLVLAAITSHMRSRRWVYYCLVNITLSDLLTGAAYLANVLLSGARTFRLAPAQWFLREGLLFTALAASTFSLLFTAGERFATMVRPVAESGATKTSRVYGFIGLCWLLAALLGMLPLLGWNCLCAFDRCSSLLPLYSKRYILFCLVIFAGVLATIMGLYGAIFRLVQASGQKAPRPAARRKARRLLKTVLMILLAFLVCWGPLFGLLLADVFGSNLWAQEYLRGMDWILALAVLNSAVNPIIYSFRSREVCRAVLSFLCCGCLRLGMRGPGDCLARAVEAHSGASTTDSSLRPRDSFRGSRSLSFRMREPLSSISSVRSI
The assay can be described thus: Late-stage fluorescence-based dose-response cell-based counterscreen assay to identify agonists of the Sphingosine 1-Phosphate Receptor 3 (S1P3): Sphingosine 1-Phosphate Receptor 4 (S1P4) agonist assay. It is filed as functional.

Assay [16] has as its target Vascular endothelial growth factor receptor 2 (Homo sapiens, UniProt P35968). It is filed as functional.
Assay [17] concerns the target Tyrosine-protein kinase ABL1 (Homo sapiens, UniProt P00519). It counts as functional.
Assay [18] deals with T2, DNA dC->dU-editing enzyme APOBEC-3A (Homo sapiens, UniProt P31941). Description: A3A deaminase inhibition for selectivity – biochemical, dose response (AID 504722). It counts as functional.
Assay [19] has as its target T2, DNA dC->dU-editing enzyme APOBEC-3A. Description: SAR analysis of small molecule inhibitors of APOBEC3A DNA Deaminase via a fluorescence-based single-stranded DNA deaminase assay. It counts as functional. As to conditions: read-out: IC50_Mean.
For assay [20], the target named is T3, DNA dC->dU-editing enzyme APOBEC-3G (Homo sapiens, UniProt Q9HC16). The assay can be described thus: Dose Response confirmation of small molecule APOBEC3G DNA Deaminase Inhibitors via a fluorescence-based single-stranded DNA deaminase assay. [Related pubchem assays (depositor defined):AID493012, AID493028]. It is filed as functional.
Assay [21] has as its target T2, DNA dC->dU-editing enzyme APOBEC-3A. Description: SAR analysis of small molecule inhibitors of APOBEC3A DNA Deaminase via a fluorescence-based single-stranded DNA deaminase assay - Set 2. Conditions: read-out: IC50_Mean. It is filed as functional.
The target in assay [22] is T3, DNA dC->dU-editing enzyme APOBEC-3G. The assay can be described thus: SAR analysis of small molecule inhibitors of APOBEC3G DNA Deaminase via a fluorescence-based single-stranded DNA deaminase assay - Set 2. It is filed as functional. As to conditions: read-out: IC50_Mean.
The target of assay [23] is T4, Mitochondrial peptide methionine sulfoxide reductase (Bos taurus, UniProt P54149).
T4 sequence (P54149 whole entry): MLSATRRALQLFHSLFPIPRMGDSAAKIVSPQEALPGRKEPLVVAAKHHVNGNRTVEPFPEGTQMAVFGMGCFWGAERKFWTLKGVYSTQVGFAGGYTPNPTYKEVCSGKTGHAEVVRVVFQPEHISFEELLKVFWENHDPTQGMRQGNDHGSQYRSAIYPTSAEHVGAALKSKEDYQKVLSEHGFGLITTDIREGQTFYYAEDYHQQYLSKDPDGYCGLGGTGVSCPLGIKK
Description: Absorbance-based biochemical high throughput dose response assay for activators of Methionine sulfoxide reductase A (MsrA). It is filed as functional.

Assay [24] deals with T3, DNA dC->dU-editing enzyme APOBEC-3G. Description: inhibition of APOBEC3G ssDNA deamination – biochemical, fluorescence, single-stranded DNA substrate, SAR follow-up (AID 602136). It is filed as functional. As to conditions: read-out: IC50_Mean.
In assay [25] the target is Mitogen-activated protein kinase kinase kinase kinase 2 (Homo sapiens, UniProt Q12851). It counts as functional.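 Note: measured as one member of a kinome-wide kinase panel, with MAP4K2 as the panel entry.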
Assay [26] deals with Dual specificity protein kinase CLK4 (Homo sapiens, UniProt Q9HAZ1). It counts as functional.
Assay [27] deals with Neuropeptides B/W receptor type 1 (Homo sapiens, UniProt P48145). The assay can be described thus: human NPBW1 receptor blockade, IC50 – cell-based, fluorescence, dose response, set 5, late-stage follow-up (AID 588566). It counts as functional.
Assay [28] concerns the target Melanin-concentrating hormone receptor 1 (Homo sapiens, UniProt Q99705). The assay can be described thus: Late-stage fluorescence-based counterscreen for antagonists of the G-protein coupled receptor 7 (GPR7): cell-based dose response assay to identify antagonists of the melanin-concentrating hormone receptor 1 (MCHR1) Set 5. It is filed as functional.

T3 sequence (Q9HC16 whole entry): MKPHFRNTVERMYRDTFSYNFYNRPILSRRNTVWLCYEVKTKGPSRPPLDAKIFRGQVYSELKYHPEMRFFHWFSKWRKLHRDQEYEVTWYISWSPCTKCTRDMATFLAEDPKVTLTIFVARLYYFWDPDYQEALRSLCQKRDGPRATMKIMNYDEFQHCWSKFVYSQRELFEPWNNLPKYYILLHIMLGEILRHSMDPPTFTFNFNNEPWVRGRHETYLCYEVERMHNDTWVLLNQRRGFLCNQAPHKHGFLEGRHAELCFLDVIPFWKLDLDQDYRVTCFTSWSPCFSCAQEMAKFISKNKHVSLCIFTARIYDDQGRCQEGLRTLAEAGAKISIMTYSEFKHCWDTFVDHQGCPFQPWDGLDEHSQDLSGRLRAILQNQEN
T2 sequence (P31941 whole entry): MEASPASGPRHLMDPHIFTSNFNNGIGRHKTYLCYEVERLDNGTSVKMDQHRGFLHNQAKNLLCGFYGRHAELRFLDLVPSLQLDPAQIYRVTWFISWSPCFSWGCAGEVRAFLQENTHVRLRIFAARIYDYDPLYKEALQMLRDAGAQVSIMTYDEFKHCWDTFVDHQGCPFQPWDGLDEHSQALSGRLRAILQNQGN
Chain of Dual specificity protein kinase CLK4 (Q9HAZ1 whole entry): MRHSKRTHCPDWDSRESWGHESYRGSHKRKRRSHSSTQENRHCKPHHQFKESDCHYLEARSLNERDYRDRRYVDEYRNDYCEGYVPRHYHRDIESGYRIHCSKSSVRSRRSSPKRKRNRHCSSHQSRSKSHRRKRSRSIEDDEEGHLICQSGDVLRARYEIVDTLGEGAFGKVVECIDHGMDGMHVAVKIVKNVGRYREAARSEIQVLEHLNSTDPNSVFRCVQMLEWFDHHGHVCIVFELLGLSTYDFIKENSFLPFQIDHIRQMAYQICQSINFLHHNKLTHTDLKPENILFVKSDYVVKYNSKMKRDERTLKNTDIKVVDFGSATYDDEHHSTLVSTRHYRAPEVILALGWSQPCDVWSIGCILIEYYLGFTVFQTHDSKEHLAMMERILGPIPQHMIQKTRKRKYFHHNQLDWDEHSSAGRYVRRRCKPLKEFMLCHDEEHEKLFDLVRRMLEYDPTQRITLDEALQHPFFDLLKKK
Chain of Vascular endothelial growth factor receptor 2 (P35968 whole entry): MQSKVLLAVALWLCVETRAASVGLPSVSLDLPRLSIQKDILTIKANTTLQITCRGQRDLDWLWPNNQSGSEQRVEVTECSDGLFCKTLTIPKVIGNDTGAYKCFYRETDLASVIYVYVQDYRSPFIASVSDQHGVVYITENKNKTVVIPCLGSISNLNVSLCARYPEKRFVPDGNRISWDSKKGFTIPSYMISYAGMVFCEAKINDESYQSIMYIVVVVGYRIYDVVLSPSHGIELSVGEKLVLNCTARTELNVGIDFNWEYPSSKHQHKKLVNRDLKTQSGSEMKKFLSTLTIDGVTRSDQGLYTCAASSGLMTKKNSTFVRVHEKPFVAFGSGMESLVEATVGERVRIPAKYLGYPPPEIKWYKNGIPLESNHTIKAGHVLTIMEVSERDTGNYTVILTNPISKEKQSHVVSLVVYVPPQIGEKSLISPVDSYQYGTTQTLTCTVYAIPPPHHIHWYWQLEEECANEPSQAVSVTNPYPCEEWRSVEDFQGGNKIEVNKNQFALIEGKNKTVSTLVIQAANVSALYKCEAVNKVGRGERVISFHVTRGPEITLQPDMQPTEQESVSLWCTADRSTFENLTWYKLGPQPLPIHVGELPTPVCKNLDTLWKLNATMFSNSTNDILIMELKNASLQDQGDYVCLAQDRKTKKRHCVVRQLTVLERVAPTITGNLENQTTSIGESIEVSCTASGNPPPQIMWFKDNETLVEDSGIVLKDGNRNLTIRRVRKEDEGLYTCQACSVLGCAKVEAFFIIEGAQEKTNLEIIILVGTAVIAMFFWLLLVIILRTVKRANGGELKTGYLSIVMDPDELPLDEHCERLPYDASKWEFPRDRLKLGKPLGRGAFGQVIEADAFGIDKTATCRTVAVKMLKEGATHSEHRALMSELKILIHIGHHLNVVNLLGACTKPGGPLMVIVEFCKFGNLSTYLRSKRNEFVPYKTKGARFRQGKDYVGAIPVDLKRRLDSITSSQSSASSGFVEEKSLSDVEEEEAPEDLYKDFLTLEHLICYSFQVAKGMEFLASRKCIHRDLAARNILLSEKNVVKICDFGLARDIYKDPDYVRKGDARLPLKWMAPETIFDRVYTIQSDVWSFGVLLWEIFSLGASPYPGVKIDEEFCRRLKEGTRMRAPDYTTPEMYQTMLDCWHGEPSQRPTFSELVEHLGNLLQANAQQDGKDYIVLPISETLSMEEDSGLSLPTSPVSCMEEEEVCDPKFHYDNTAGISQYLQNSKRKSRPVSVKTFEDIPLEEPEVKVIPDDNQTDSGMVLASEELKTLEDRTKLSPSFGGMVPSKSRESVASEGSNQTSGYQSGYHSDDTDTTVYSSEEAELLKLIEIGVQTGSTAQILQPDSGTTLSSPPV
Chain of Dual specificity tyrosine-phosphorylation-regulated kinase 4 (Q9NR20 whole entry): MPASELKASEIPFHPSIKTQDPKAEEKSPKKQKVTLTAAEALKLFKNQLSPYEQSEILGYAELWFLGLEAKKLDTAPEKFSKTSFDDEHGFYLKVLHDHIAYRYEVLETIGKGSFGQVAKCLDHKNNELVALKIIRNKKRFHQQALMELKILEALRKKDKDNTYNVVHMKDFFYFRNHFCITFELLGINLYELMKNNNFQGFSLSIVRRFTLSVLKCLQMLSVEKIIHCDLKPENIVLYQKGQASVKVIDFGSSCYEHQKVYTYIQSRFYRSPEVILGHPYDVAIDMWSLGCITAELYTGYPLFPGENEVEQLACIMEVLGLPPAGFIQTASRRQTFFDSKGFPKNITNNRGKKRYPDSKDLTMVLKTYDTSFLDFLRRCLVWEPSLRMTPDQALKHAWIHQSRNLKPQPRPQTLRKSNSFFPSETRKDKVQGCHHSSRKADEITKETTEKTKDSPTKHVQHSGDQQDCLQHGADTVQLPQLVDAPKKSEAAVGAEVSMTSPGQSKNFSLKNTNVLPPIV
Chain of MAP kinase-activated protein kinase 3 (Q16644 whole entry): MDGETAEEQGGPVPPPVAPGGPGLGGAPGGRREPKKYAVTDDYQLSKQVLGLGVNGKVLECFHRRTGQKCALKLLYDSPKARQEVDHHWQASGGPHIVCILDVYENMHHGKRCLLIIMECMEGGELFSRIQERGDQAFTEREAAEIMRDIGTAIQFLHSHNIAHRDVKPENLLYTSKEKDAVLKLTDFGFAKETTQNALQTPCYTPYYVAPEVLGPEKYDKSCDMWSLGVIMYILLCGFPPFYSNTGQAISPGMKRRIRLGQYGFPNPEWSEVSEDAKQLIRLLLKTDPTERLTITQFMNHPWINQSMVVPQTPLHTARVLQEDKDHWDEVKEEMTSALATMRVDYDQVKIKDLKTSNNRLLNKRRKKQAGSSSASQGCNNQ
Chain of Sphingosine 1-phosphate receptor 2 (O95136 whole entry): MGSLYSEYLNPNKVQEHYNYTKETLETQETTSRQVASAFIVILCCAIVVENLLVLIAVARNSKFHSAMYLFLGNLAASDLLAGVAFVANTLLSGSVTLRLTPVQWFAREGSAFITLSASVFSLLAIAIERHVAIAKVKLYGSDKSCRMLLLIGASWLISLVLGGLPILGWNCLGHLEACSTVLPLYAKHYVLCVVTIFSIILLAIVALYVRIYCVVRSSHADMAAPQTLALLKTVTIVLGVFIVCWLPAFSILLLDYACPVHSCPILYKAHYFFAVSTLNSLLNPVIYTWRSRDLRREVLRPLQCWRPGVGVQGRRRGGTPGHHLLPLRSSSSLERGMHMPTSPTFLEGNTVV
Chain of Botulinum neurotoxin type A (P0DPI1 2-448 limits assumed): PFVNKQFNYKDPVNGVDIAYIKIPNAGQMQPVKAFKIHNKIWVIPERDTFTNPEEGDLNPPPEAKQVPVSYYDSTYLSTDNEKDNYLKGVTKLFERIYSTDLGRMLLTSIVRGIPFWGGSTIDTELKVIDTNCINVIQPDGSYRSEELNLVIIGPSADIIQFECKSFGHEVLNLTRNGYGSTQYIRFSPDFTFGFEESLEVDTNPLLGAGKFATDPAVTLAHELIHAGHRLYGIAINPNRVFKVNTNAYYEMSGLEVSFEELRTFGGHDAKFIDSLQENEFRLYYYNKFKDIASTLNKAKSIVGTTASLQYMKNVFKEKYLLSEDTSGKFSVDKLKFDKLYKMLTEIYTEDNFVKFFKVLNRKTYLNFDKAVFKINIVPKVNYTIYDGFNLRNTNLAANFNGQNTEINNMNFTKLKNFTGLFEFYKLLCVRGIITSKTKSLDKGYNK
Chain of Protein S100-A4 (P26447 whole entry): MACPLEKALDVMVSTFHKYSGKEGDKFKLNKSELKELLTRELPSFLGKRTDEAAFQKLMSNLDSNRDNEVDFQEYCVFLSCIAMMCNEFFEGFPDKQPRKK

With `Cc1ccc(NC(=O)c2ccc(CN3CCN(C)CC3)cc2)cc1Nc1nccc(-c2cccnc2)n1` [IMATINIB], the Ki was > 1.26 µM (inactive) in [1]; > 10 µM (inactive) in assay [2]; > 10 µM (inactive) in assay [3]; > 7.94 µM (inactive) in assay [4]; > 1.58 µM (inactive) in [5]; > 7.94 µM (inactive) in [6]. Besides, the Ki in [7] was > 3.98 µM (inactive); in assay [8], > 6.31 µM (inactive).
In the case of `Cc1cc2ccccc2n1CCNC(=O)c1ccc(S(=O)(=O)N2CCCCC2)cc1`, the EC50 in assay [9] is > 20 µM (inactive); in [10], 13.6 µM (not active); in assay [11], 6.53 µM (active); in assay [12] it was 5.91 µM (active); in assay [13], 1 µM (active). In addition, the AC50 on Protein S100-A4 was 6.69 µM (active).
Take `COc1ccc(-c2cc(C(=O)N(C3CCCCC3)C3CCCCC3)no2)cc1OC`: the EC50 in [14] and in [15] was > 50 µM (inactive) each time.
Turning to `N#Cc1cnc2c(Br)cnn2c1N`, the figures for the Ki in assay [16] and in assay [17] were 100 µM (active) and 79.4 µM (active), respectively.
In the case of `Sc1nnc(NCCc2ccccc2)s1`, the IC50 was > 100 µM (inactive) in [18]; > 99 µM (inactive) in [19]; 1.2 µM (active) in assay [20]; > 99 µM (inactive) in assay [21]; 695 nM (active) in [22]; 835 nM (active) in assay [24]. For the same molecule, the EC50 in assay [23] was > 104 µM (inactive).
As to `O=C1CC(c2ccc(Cl)cc2Cl)Cc2[nH]c3ccc(Cl)cc3c(=O)c21` (centres undefined), the figures for the Ki in assay [25] and in assay [26] were 5.01 µM (active) and 7.94 µM (active), respectively.
For the molecule `COc1ccc(Oc2c(Cl)cnn(Cc3ccccc3C#N)c2=O)cc1`, the IC50 in assay [27] is 1.45 µM (active); in assay [28], 11.4 µM (inactive).
